Measured values reported in US12077503B2, “Substituted cyclic amides and their use as herbicides” (FMC CORPORATION, priority 2015, dated 2024).

Legend:
Assay type in all cases: in vivo
[1] = tested on: wheat (Triticum aestivum); experiment: Test A postemergence; conditions: Triticum aestivum, post-emergence, 240 h, 125 g ai/ha, Postemergence; visual injury after approximately 10 d; 0 to 100 scale where 0 is no effect and 100 is complete control; read-out: Plant response rating, Wheat
In short: (§1)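 Visual injury, scored on a 0–100 scale relative to untreated controls, was recorded about 10 d after application. Treatments were a preemergence soil spray over planted seeds or a postemergence spray on plants at the one- to two-leaf stage, 2 to 10 cm tall, all in loam soil–sand blend in the greenhouse.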

[2] = tested on: giant foxtail (Setaria faberii); experiment: Test A postemergence; conditions: Setaria faberi, post-emergence, 240 h, 125 g ai/ha, Postemergence; visual injury after approximately 10 d; 0 to 100 scale where 0 is no effect and 100 is complete control; read-out: Plant response rating, Foxtail, Giant
In short: as §1

[3] = tested on: Galium (catchweed bedstraw, Galium aparine); experiment: Test A postemergence; conditions: Galium, post-emergence, 240 h, 125 g ai/ha, Postemergence; visual injury after approximately 10 d; 0 to 100 scale where 0 is no effect and 100 is complete control; read-out: Plant response rating, Galium
In short: as §1

[4] = tested on: pigweed (Amaranthus retroflexus); experiment: Test A postemergence; conditions: Amaranthus retroflexus, post-emergence, 240 h, 125 g ai/ha, Postemergence; visual injury after approximately 10 d; 0 to 100 scale where 0 is no effect and 100 is complete control; read-out: Plant response rating, Pigweed
In short: as §1

corn (Zea mays) = experiment: Test A postemergence; conditions: Zea mays, post-emergence, 240 h, 125 g ai/ha, Postemergence; visual injury after approximately 10 d; 0 to 100 scale where 0 is no effect and 100 is complete control
In short: as §1

[5] = tested on: ryegrass, Italian (Italian ryegrass, Lolium multiflorum); experiment: Test A postemergence; conditions: Lolium multiflorum, post-emergence, 240 h, 125 g ai/ha, Postemergence; visual injury after approximately 10 d; 0 to 100 scale where 0 is no effect and 100 is complete control; read-out: Plant response rating, Ryegrass, Italian
In short: as §1

Kochia (Kochia scoparia) [6] = experiment: Test A postemergence; conditions: Bassia scoparia, post-emergence, 240 h, 125 g ai/ha, Postemergence; visual injury after approximately 10 d; 0 to 100 scale where 0 is no effect and 100 is complete control; read-out: Plant response rating, Kochia
In short: as §1

[7] = tested on: blackgrass (Alopecurus myosuroides); experiment: Test A postemergence; conditions: Alopecurus myosuroides, post-emergence, 240 h, 125 g ai/ha, Postemergence; visual injury after approximately 10 d; 0 to 100 scale where 0 is no effect and 100 is complete control; read-out: Plant response rating, Blackgrass
In short: as §1

[8] = tested on: ragweed (common ragweed, Ambrosia elatior); experiment: Test A postemergence; conditions: Ambrosia artemisiifolia, post-emergence, 240 h, 125 g ai/ha, Postemergence; visual injury after approximately 10 d; 0 to 100 scale where 0 is no effect and 100 is complete control; read-out: Plant response rating, Ragweed
In short: as §1

[9] = tested on: barnyardgrass (Echinochloa crus-galli); experiment: Test A postemergence; conditions: Echinochloa crus-galli, post-emergence, 240 h, 125 g ai/ha, Postemergence; visual injury after approximately 10 d; 0 to 100 scale where 0 is no effect and 100 is complete control; read-out: Plant response rating, Barnyardgrass
In short: as §1

[10] = tested on: giant foxtail (Setaria faberii); experiment: Test A preemergence; conditions: Setaria faberi, pre-emergence, 240 h
In short: as §1

[11] = tested on: pigweed (Amaranthus retroflexus); experiment: Test A preemergence; conditions: Amaranthus retroflexus, pre-emergence, 240 h
[12] = tested on: ryegrass, Italian (Italian ryegrass, Lolium multiflorum); experiment: Test A preemergence; conditions: Lolium multiflorum, pre-emergence, 240 h
In short: as §1

Kochia (Kochia scoparia) [13] = experiment: Test A preemergence; conditions: Bassia scoparia, pre-emergence, 240 h
In short: as §1

[14] = tested on: ragweed (common ragweed, Ambrosia elatior); experiment: Test A preemergence; conditions: Ambrosia artemisiifolia, pre-emergence, 240 h
In short: as §1

[15] = tested on: barnyardgrass (Echinochloa crus-galli); experiment: Test A preemergence; conditions: Echinochloa crus-galli, pre-emergence, 240 h
In short: as §1

[16] = tested on: ducksalad (Heteranthera limosa); experiment: Test B flooded paddy test; conditions: Heteranthera limosa, Flood, 250 g ai/ha; scale of 0 to 100 where 0 is no effect and 100 is complete control; read-out: Ducksalad plant response rating
In short: (§2)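 Rating scale 0–100 (visual, vs untreated controls) after a 13–15 d greenhouse period; application to the flood layer, 3 cm above soil and maintained; plants at 2-leaf stage when treated.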

rice (Oryra sativa) = experiment: Test B flooded paddy test; conditions: Oryza sativa, Flood, 250 g ai/ha; scale of 0 to 100 where 0 is no effect and 100 is complete control; read-out: Rice plant response rating
In short: as §2

[17] = tested on: barnyardgrass (Echinochloa crus-galli); experiment: Test B flooded paddy test; conditions: Echinochloa crus-galli, Flood, 250 g ai/ha; scale of 0 to 100 where 0 is no effect and 100 is complete control; read-out: Barnyardgrass plant response rating
In short: as §2

[18] = tested on: sedge, umbrella (small-flower umbrella sedge, Cyperus difformis); experiment: Test B flooded paddy test; conditions: Cyperus difformis, Flood, 250 g ai/ha; scale of 0 to 100 where 0 is no effect and 100 is complete control; read-out: Sedge, Umbrella plant response rating
In short: as §2

`CC(C)Oc1ccc([C@H]2CN(C)C(=O)[C@@H]2C(=O)Nc2cccc(F)c2F)cc1` [Compound 953] showed a plant injury at 125 g/ha [1] of 0%, a pest or weed control at 125 g/ha [2] of 90% and a pest or weed control at 125 g/ha [3] of 20%. The pest or weed control at 125 g/ha [4] was 0%, the Corn plant response rating (crop injury, 0 = no effect, 100 = complete kill) at 125 g/ha (corn (Zea mays)) was 0% and the pest or weed control at 125 g/ha [5] was 0%. For the same compound, the pest or weed control at 125 g/ha (Kochia (Kochia scoparia) [6]) was 30%, the pest or weed control at 125 g/ha [7] was 0% and the pest or weed control at 125 g/ha [8] was 0%. It also gave a pest or weed control at 125 g/ha [9] of 90%, a pest or weed control at 125 g/ha ([10]; 125 g ai/ha, Preemergence, visual injury rating after approximately 10 d, read-out: Foxtail, Giant plant response rating (0 to 100 scale, 0 is no effect, 100 is complete control)) of 90% and a pest or weed control at 500 g/ha ([10]; 500 g ai/ha, preemergence, visual injury rating about 10 d after treatment, 0 to 100 scale (0 no effect, 100 complete control), read-out: Foxtail, Giant plant response rating) of 100%. It also gave a pest or weed control at 125 g/ha ([11]; 125 g ai/ha, Preemergence, visual injury rating after approximately 10 d, read-out: Pigweed plant response rating (0 to 100 scale, 0 is no effect, 100 is complete control)) of 0%, a pest or weed control at 500 g/ha ([11]; 500 g ai/ha, preemergence, visual injury rating about 10 d after treatment, 0 to 100 scale (0 no effect, 100 complete control), read-out: Pigweed plant response rating) of 0% and a pest or weed control at 125 g/ha ([12]; 125 g ai/ha, Preemergence, visual injury rating after approximately 10 d, read-out: Ryegrass, Italian plant response rating (0 to 100 scale, 0 is no effect, 100 is complete control)) of 0%. The pest or weed control at 500 g/ha ([12]; 500 g ai/ha, preemergence, visual injury rating about 10 d after treatment, 0 to 100 scale (0 no effect, 100 complete control), read-out: Ryegrass, Italian plant response rating) was 60%, the pest or weed control at 125 g/ha (Kochia (Kochia scoparia) [13]; 125 g ai/ha, Preemergence, visual injury rating after approximately 10 d, read-out: Kochia plant response rating (0 to 100 scale, 0 is no effect, 100 is complete control)) was 60% and the pest or weed control at 500 g/ha (Kochia (Kochia scoparia) [13]; 500 g ai/ha, preemergence, visual injury rating about 10 d after treatment, 0 to 100 scale (0 no effect, 100 complete control), read-out: Kochia plant response rating) was 60%. It also gave a pest or weed control at 125 g/ha ([14]; 125 g ai/ha, Preemergence, visual injury rating after approximately 10 d, read-out: Ragweed plant response rating (0 to 100 scale, 0 is no effect, 100 is complete control)) of 0%, a pest or weed control at 500 g/ha ([14]; 500 g ai/ha, preemergence, visual injury rating about 10 d after treatment, 0 to 100 scale (0 no effect, 100 complete control), read-out: Ragweed plant response rating) of 0% and a pest or weed control at 125 g/ha ([15]; 125 g ai/ha, Preemergence, visual injury rating after approximately 10 d, read-out: Barnyardgrass plant response rating (0 to 100 scale, 0 is no effect, 100 is complete control)) of 90%. For the same compound, the pest or weed control at 500 g/ha ([15]; 500 g ai/ha, preemergence, visual injury rating about 10 d after treatment, 0 to 100 scale (0 no effect, 100 complete control), read-out: Barnyardgrass plant response rating) was 90%, the pest or weed control at 250 g/ha [16] was 40% and the pest or weed control at 250 g/ha (rice (Oryra sativa)) was 0%. For the same compound, the pest or weed control at 250 g/ha [17] was 20% and the pest or weed control at 250 g/ha [18] was 0%.
